Values of other authors as cited in PubChem BioAssay AID1259409 (Chemical Carcinogenesis Research Information System (CCRIS), 2018).

Tested on: rodent chemically induced tumor inhibition, incidence and multiplicity
Assay: CCRIS tumor inhibitor studies

CC1=C(/C=C/C(C)=C/C=C/C(C)=C/C(=O)Nc2ccc(O)cc2)C(C)(C)CCC1
tumour outcome (control, treated, inhibition, significance) (Carcinogen: 7,12-DIMETHYLBENZ[A]ANTHRACENE, 57-97-6, Dose [Inhibitor]: 1.5 MMOL/KG CHOW DIET IN 25 ML OF THE VEHICLE (ETHANOL/TRICAPRYLIN 1:4 (VOL/VOL) PLUS 6% (WT/VOL) ALPHA-TOCOPHEROL) BEGI, Route [Inhibitor]: ORAL, Species: RAT, Strain/Sex: SPRAGUE-DAWLEY/FEMALE, Target Tissue: Type of Lesion: MAMMARY GLAND: TUMOR, Dose [Carcinogen]: 75 MG/KG BW IN 1.0 ML SESAME OIL ONCE, Promoter: NONE USED): 70%, 30%, 57%, not significant | tumour outcome (control, treated, inhibition, significance) (Carcinogen: 7,12-DIMETHYLBENZ[A]ANTHRACENE, 57-97-6, Dose [Inhibitor]: 2 MMOL/KG DIET DAILY FROM 10 D THROUGH 12 WK AFTER CARCINOGEN DOSE FOLLOWED BY 16 WK OBSERVATION PERIOD (STUDY DURATION:, Route [Inhibitor]: ORAL, Species: RAT, Strain/Sex: SPRAGUE-DAWLEY/FEMALE, Target Tissue: Type of Lesion: MAMMARY GLAND: TUMOR, Dose [Carcinogen]: 10 MG/RAT ONCE, Promoter: NONE USED): 8/15 (53%), 7/15 (47%), 11%, not significant | tumour outcome (control, treated, inhibition, significance) (Carcinogen: 7,12-DIMETHYLBENZ[A]ANTHRACENE, 57-97-6, Dose [Inhibitor]: 2 MMOL/KG DIET DAILY FROM 29 D PRIOR THROUGH 12 WK AFTER CARCINOGEN DOSE FOLLOWED BY 16 WK OBSERVATION PERIOD (STUDY DUR, Route [Inhibitor]: ORAL, Species: RAT, Strain/Sex: SPRAGUE-DAWLEY/FEMALE, Target Tissue: Type of Lesion: MAMMARY GLAND: TUMOR, Dose [Carcinogen]: 10 MG/RAT ONCE, Promoter: NONE USED): 8/15 (53%), 9/15 (60%), -13%, not significant | tumour outcome (control, treated, inhibition, significance) (Carcinogen: DIETHYLNITROSAMINE [55-18-5], Dose [Inhibitor]: 280 NM/100 G BW WK FOR 3 WK BETWEEN 4TH AND 25TH WK AFTER CARCINOGEN (STUDY DURATION: 50 WK), Route [Inhibitor]: IP INJECTION, Species: RAT, Strain/Sex: F344/MALE, Target Tissue: Type of Lesion: LIVER: HEPATOCELLULAR CARCINOMA, Dose [Carcinogen]: 150 MG/KG ONCE, Promoter: 2-ACETYLAMINOFLUORENE [53-96-3]): 14/18 (78%), 6/20 (30%), 62%, p= 0.0044 | tumour outcome (control, treated, inhibition, significance) (Carcinogen: DIETHYLNITROSAMINE, 55-18-5, Dose [Inhibitor]: 0, 98 MG/KG DIET FOR DURATION OF STUDY BEGINNING 1 WK PRIOR TO CARCINOGEN TREATMENT (STUDY DURATION: 25 WK), Route [Inhibitor]: ORAL, Species: HAMSTER, Strain/Sex: SYRIAN/MALE, Target Tissue: Type of Lesion: LUNG: CARCINOMA, Dose [Carcinogen]: 17.8 MG/KG BW 2/WK FOR 20 WK, Promoter: NONE USED): 50%, 45%, 10%, not significant | tumour outcome (control, treated, inhibition, significance) (Carcinogen: DIETHYLNITROSAMINE, 55-18-5, Dose [Inhibitor]: 0, 98 MG/KG DIET FOR DURATION OF STUDY BEGINNING 1 WK PRIOR TO CARCINOGEN TREATMENT (STUDY DURATION: 25 WK), Route [Inhibitor]: ORAL, Species: HAMSTER, Strain/Sex: SYRIAN/MALE, Target Tissue: Type of Lesion: TRACHEA: PAPILLOMA, Dose [Carcinogen]: 17.8 MG/KG BW 2/WK FOR 20 WK, Promoter: NONE USED): 95%, 95%, 0%, not significant | tumour outcome (control, treated, inhibition, significance) (Carcinogen: DIETHYLNITROSAMINE, 55-18-5, Dose [Inhibitor]: 0, 196 MG/KG DIET FOR DURATION OF STUDY BEGINNING 1 WK PRIOR TO CARCINOGEN TREATMENT (STUDY DURATION: 25 WK), Route [Inhibitor]: ORAL, Species: HAMSTER, Strain/Sex: SYRIAN/MALE, Target Tissue: Type of Lesion: LUNG: CARCINOMA, Dose [Carcinogen]: 17.8 MG/KG BW 2/WK FOR 20 WK, Promoter: NONE USED): 60%, 50%, 17%, not significant | tumour outcome (control, treated, inhibition, significance) (Carcinogen: DIETHYLNITROSAMINE, 55-18-5, Dose [Inhibitor]: 0, 196 MG/KG DIET FOR DURATION OF STUDY BEGINNING 1 WK PRIOR TO CARCINOGEN TREATMENT (STUDY DURATION: 25 WK), Route [Inhibitor]: ORAL, Species: HAMSTER, Strain/Sex: SYRIAN/MALE, Target Tissue: Type of Lesion: TRACHEA: PAPILLOMA, Dose [Carcinogen]: 17.8 MG/KG BW 2/WK FOR 20 WK, Promoter: NONE USED): 100%, 100%, 0%, not significant | tumour outcome (control, treated, inhibition, significance) (Carcinogen: DIMETHYLBENZ[A]ANTHRACENE, 57-97-6, Dose [Inhibitor]: 0, 782 MG/KG DIET IN VEHICLE 2 MO PRIOR TO CARCINOGEN DOSE AND CONTINUED UNTIL CARCINOGEN ADMINISTRATION (STUDY DURATION, Route [Inhibitor]: ORAL, Species: RAT, Strain/Sex: CD-1/FEMALE, Target Tissue: Type of Lesion: MAMMARY GLAND: ADENOCARCINOMA, Dose [Carcinogen]: 20 MG IN 1 ML SESAME OIL ONCE, Promoter: NONE USED): 63%, 71%, -13%, not calculated | tumour outcome (control, treated, inhibition, significance) (Carcinogen: DIMETHYLBENZ[A]ANTHRACENE, 57-97-6, Dose [Inhibitor]: 0, 782 MG/KG DIET IN VEHICLE 2 MO PRIOR TO CARCINOGEN DOSE AND CONTINUED UNTIL CARCINOGEN ADMINISTRATION (STUDY DURATION, Route [Inhibitor]: ORAL, Species: RAT, Strain/Sex: CD-1/FEMALE, Target Tissue: Type of Lesion: MAMMARY GLAND: ADENOMA, Dose [Carcinogen]: 20 MG IN 1 ML SESAME OIL ONCE, Promoter: NONE USED): 17%, 43%), -153%, not calculated | tumour outcome (control, treated, inhibition, significance) (Carcinogen: METHYLNITROSOUREA, 684-93-5, Dose [Inhibitor]: 0, 782 MG/KG DIET IN VEHICLE 2 MO PRIOR TO CARCINOGEN DOSE AND CONTINUED FOR STUDY DURATION (STUDY DURATION: 8 MO), Route [Inhibitor]: ORAL, Species: RAT, Strain/Sex: CD-1/FEMALE, Target Tissue: Type of Lesion: MAMMARY GLAND: ADENOCARCINOMA, Dose [Carcinogen]: 50 MG/KG BW ONCE, Promoter: NONE USED): 57%, 23%, 60%, p<0.05 | tumour outcome (control, treated, inhibition, significance) (Carcinogen: METHYLNITROSOUREA, 684-93-5, Dose [Inhibitor]: 0, 782 MG/KG DIET IN VEHICLE 2 MO PRIOR TO CARCINOGEN DOSE AND CONTINUED FOR STUDY DURATION (STUDY DURATION: 8 MO), Route [Inhibitor]: ORAL, Species: RAT, Strain/Sex: CD-1/FEMALE, Target Tissue: Type of Lesion: MAMMARY GLAND: BENIGN TUMOR, Dose [Carcinogen]: 50 MG/KG BW ONCE, Promoter: NONE USED): 10%, 3%, 70%, not calculated | tumour outcome (control, treated, inhibition, significance) (Carcinogen: METHYLNITROSOUREA, 684-93-5, Dose [Inhibitor]: 0, 782 MG/KG DIET IN VEHICLE 2 MO PRIOR TO CARCINOGEN DOSE AND CONTINUED UNTIL CARCINOGEN ADMINISTRATION (STUDY DURATION, Route [Inhibitor]: ORAL, Species: RAT, Strain/Sex: CD-1/FEMALE, Target Tissue: Type of Lesion: MAMMARY GLAND: ADENOCARCINOMA, Dose [Carcinogen]: 50 MG/KG BW ONCE, Promoter: NONE USED): 57%, 66%, -16%, not calculated
